Reference: PMC4738305, “Metabolism and Disposition of Aditoprim in Swine, Broilers, Carp and Rats” (Scientific Reports, 2016)

Legend:
[1] = Metabolite profiling of ADP in excreta, plasma and bile (LC-v.ARC/MS-IT-TOF); type: in vivo, swine; details: for percentage of the individual metabolite compared with the total concentration of ADP-related: within 6 h after dosing; for Average percentage of ADP and its metabolites in total dose: Swine, single oral 5 mg/kg b.w. ^3H-ADP
Protocol: (§1) Animals (4 swine, 6 broilers, 6 carp, and 3 male and 3 female rats) were housed individually in clean, suspended wire-mesh metabolism cages, designed to separate the urine from the feces (carp were raised in individual aquaria). Each animal was weighed and assigned with a permanent identification number. A single dose of ^3 H-ADP (5 mg/kg b. w., 0.1 Ci/g) was administered via the oral gavage. Excreta were collected on ice at the pre-administration, in the period of 6, 12, and 24 h on day 1 d, and afterwards, intermittently in the period of 24 h up to 14 d. The piscine excreta were collected by changing and collecting raised water. The total volume or weight of each sample was measured and homogenized. The total radioactivity levels were determined through LSC for the recovery calculations. After the preparation, the samples were analyzed through LC/MS-IT-TOF with v. ARC radiometric detection (XenoBioticLaboratories, Inc.) for metabolite profiling. The pretreatment samples were used as controls to determine the background radioactivity or the endogenous nondrug-related ions observed within respective matrices or their extracts.
(§2) A total of 36 animals from each species (swine n = 24) were randomly assigned to six equal treatment groups and administered a single daily dose of ^3 H-ADP at 5 mg/kg b. w. (0.1 Ci/g) through oral gavage for 7 consecutive days. All the animals were housed on the basis of their group in the cages or aquaria throughout the whole study period. A group of animals was slaughtered through exsanguination under diethyl ether inhalation of anesthesia in the period of 6 h, 1, 3, 7, 14, and 21 d after the administration. The blood samples were immediately collected into the heparinized tubes and was centrifuged at 1920 × g at 4 °C for 10 min to obtain the plasma. The tissues from the heart, liver, spleen, lung, kidney, craw (broilers), stomach, intestine, fat, skin, muscle, thymus, pancreas, bile, bladder, hair (scale for carp), genital gland, adrenal glands, swim bladder (carp), brain, lymph, and bursa (broilers) were carefully excised and collected. The tissues were thoroughly rinsed with the deionized water to remove the residuary blood, blotted to dryness, and finally to perform the homogenization. In order to avoid cross-contamination the dissecting instruments were washed during the tissue procurements. The blank tissues were collected in order to provide control matrices. The total radioactivity levels in each sample were determined through LSC. The samples extracted from the plasma, bile, and tissues of the liver, kidney, muscle, and fat/skin were analyzed through LC/MS-IT-TOF and v. ARC radiometric detection for metabolite profiling. The blank samples were used as control to determine the background radioactivity or the endogenous nondrug-related ions observed within respective matrices or their extracts.
(§3) For metabolite profiling, the urine and feces samples from each animals were pooled proportionally to the excreted amount in each sampling period from 0 to 6 h, 6 h to 1 d, 1 to 3 d, 3 to 7 d, and 7 to 14 d post-dose, respectively. All samples were fully homogenized before the process. The pre-dose and blank samples served as the controls for determining the background radioactivity or the endogenous, nondrug-related ions observed within respective matrices or their extracts.
(§4) The urine samples (plasma, bile and raised water for carp) was subjected to solid-phase extraction with an Oasis MCX cartridge (3 mL, […]; Waters, Milford, MA, USA) for metabolite purification and enrichment. The pH value was adjusted to 2.8–3.2 by adding 1 M hydrochloric acid (HCl), and 2 mL of the sample was transferred into MCX cartridge, which was preconditioned with 3 mL of methanol and 3 mL of 0.1 mol/L HCl solution. The cartridge was washed with 3 mL of 0.1 mol/L HCl solution and was eluted with 5 mL of NH4OH/methanol (4:96, v:v). The effluent was concentrated to dryness under a stream of nitrogen at 40 °C. […]

[2] = as above; type: in vivo, broilers; details: for percentage of the individual metabolite compared with the total concentration of ADP-related: within 6 h after dosing; for Average percentage of ADP and its metabolites in total dose: Broilers, Excreta, single oral 5 mg/kg b.w. ^3H-ADP
Protocol: as §1, §2, §3, §4

[3] = as above; type: in vivo, carp; details: for percentage of the individual metabolite compared with the total concentration of ADP-related: within 6 h after dosing; for Average percentage of ADP and its metabolites in total dose: Carp, Excreta, single oral 5 mg/kg b.w. ^3H-ADP
Protocol: as §1, §2, §3, §4

| percentage of the individual metabolite compared with the total concentration of ADP-related ([1]; Swine Feces) | percentage of the individual metabolite compared with the total concentration of ADP-related ([1]; Swine Plasma) | percentage of the individual metabolite compared with the total concentration of ADP-related ([1]; Swine Urine) | Average percentage of ADP and its metabolites in total dose ([1]; Feces) | Average percentage of ADP and its metabolites in total dose ([1]; Urine) | share of sample radioactivity ([1]; swine urine, period of 7–14 d (as the text reads), single oral dose) | percentage of the individual metabolite compared with the total concentration of ADP-related ([2]; Broilers Extra (excreta)) | percentage of the individual metabolite compared with the total concentration of ADP-related ([2]; Broilers Plasma) | Average percentage of ADP and its metabolites in total dose [2] | percentage of the individual metabolite compared with the total concentration of ADP-related ([3]; Carp Bile) | percentage of the individual metabolite compared with the total concentration of ADP-related ([3]; Carp Extra (excreta)) | percentage of the individual metabolite compared with the total concentration of ADP-related ([3]; Carp Plasma) | Average percentage of ADP and its metabolites in total dose [3] | level of intact ADP ([3]; carp, single oral 5 mg/kg b. w. (Table S5)) | Compound |
| --- | --- | --- | --- | --- | --- | --- | --- | --- | --- | --- | --- | --- | --- | --- |
| 89.1% | 53.0% | 42.3% | 16.0% | 33.4% | approximately 90% | 63.2% | 51.6% | 64.3% | 64.7% | 87.5% | 61.7% | 82.4% | 82.4 % of the oral dose | COc1cc(Cc2cnc(N)nc2N)cc(OC)c1N(C)C [A0, 2,4-Diamino-5-[4-(dimethylamino)-3,5-dimethoxybenzyl] pyrimidine] |
| 1.1% | 15.0% | 11.8% | 0.5% | 11.3% | – | 6.5% | 12.6% | 4.8% | 9.8% | 2.5% | 14.4% | 2.9% | – | COc1cc(Cc2cnc(N)nc2N)cc(OC)c1N [A2, N-didesmethyl-ADP] |
| 9.7% | 23.7% | 11.4% | 2.9% | 13.3% | – | 12.8% | 23.4% | 13.7% | 25.5% | 9.9% | 23.9% | 8.9% | – | CNc1c(OC)cc(Cc2cnc(N)nc2N)cc1OC [A1, N-monodesmethyl-ADP] |
